Test results published in patent publication US9604933B2, “Pyrazolochalcones as potential anticancer agents” (COUNCIL OF SCIENTIFIC AND INDUSTRIAL RESEARCH, priority 2013, dated 2017).
Read-outs that look alike come from different tables or passages of the source.

Key:
SNB-19 = assay: NCI SRB cytotoxicity, CNS SNB-19; format: cell-based; conditions: Homo sapiens, 48 h exposure
Description: (§1) The pyrazolochalcones (7e, 8e, 10e, 11e, 12e, 13e and 8f) have been tested against fifty nine human tumor cell lines derived from nine cancer types (leukemia, non-small cell lung cancer, colon cancer, CNS cancer, melanoma, ovarian cancer, renal cancer, prostate cancer and breast cancer) as per the NCI protocol. For each compound, dose response curves for individual cell lines have been measured at a minimum of five concentrations at 10 fold dilutions. A protocol of 48 h continuous drug exposure has been used, and a sulforhodamine B (SRB) protein assay has been used to estimate cell viability or growth. The concentration for 50% cell growth inhibition (GI50), 50% cell death (LC50, 50% growth) and total cell growth inhibition (TGI, 0% growth) values were tabulated (Table-1). DMSO was used as control to calculate the values of GI50, LC50 and TGI. The compounds 7e, 8e, 10e, 11e, 12e, 13e and 8f has been evaluated for their in vitro cytotoxicity in […] cell lines from nine human cancer types of leukemia (K-562, SR), non-small cell lung (Hop-62, NCI-H226, NCI-H522), colon (HCT-116, HCT-15, HCC-2998), CNS (SF-539), melanoma (SK-MEL-5, UACC-62, M14), ovarian (IGROV1), renal (A498), prostate (PC3) and breast (BT-549, MDA-MB-435, HS578T) origin. The results are expressed as percent of cell growth determined relative to that of untreated control cells (Table 2).

human tumor cell lines = assay: NCI SRB cytotoxicity, all fifty nine human tumor cell lines; format: cell-based; set-up: Log10 TGI mean graph midpoint (MG_MID): unit not given here; conditions: for GI50: Homo sapiens; for cytotoxicity: against cancer cell lines, in words; for LC50: read-out: Log10 LC50 mean graph midpoint (MG_MID) (converted)
Description: as §1
The mean graph midpoint values of Log10 TGI and Log10 LC50 as well as Log10 GI50 for compounds 7e, 8e, 10e, 11e, 12e, 13e and 8f is listed in Table-3. […] The mean graph mid points of Log10 TGI and Log10, LC50 have shown similar pattern to the log10 GI50 mean graph mid points.

IGROV1 = assay: NCI SRB cytotoxicity, ovarian IGROV1; format: cell-based; conditions: Homo sapiens, IGROV-1, 48 h exposure
Description: as §1

MALME-3M = assay: NCI SRB cytotoxicity, melanoma MALME-3M; format: cell-based; conditions: Homo sapiens, 48 h exposure
Description: as §1

T-47D = assay: NCI SRB cytotoxicity, breast T-47D; format: cell-based; conditions: Homo sapiens, T47D, 48 h exposure
Description: as §1

OVCAR-5 = assay: NCI SRB cytotoxicity, ovarian OVCAR-5; format: cell-based; conditions: Homo sapiens, 48 h exposure
Description: as §1

SW-620 = assay: NCI SRB cytotoxicity, colon SW-620; format: cell-based; conditions: Homo sapiens, 48 h exposure
Description: as §1

MDA-MB-435 [1] = assay: NCI SRB cytotoxicity, breast panel MDA-MB-435; format: cell-based; conditions: Homo sapiens, 48 h exposure
Description: as §1

HT29 = assay: NCI SRB cytotoxicity, colon HT29; format: cell-based; conditions: Homo sapiens, HT-29, 48 h exposure
Description: as §1

COLO-205 = assay: NCI SRB cytotoxicity, colon COLO-205; format: cell-based; conditions: Homo sapiens, 48 h exposure
Description: as §1

SF-268 = assay: NCI SRB cytotoxicity, CNS SF-268; format: cell-based; conditions: Homo sapiens, 48 h exposure
Description: as §1

SR = assay: NCI SRB cytotoxicity, leukemia SR; format: cell-based; conditions: Homo sapiens, 48 h exposure
Description: as §1

HOP-62 = assay: NCI SRB cytotoxicity, non-small cell lung HOP-62; format: cell-based; conditions: Homo sapiens, 48 h exposure
Description: as §1

SK-MEL-28 = assay: NCI SRB cytotoxicity, melanoma SK-MEL-28; format: cell-based; conditions: Homo sapiens, 48 h exposure
Description: as §1

ACHN = assay: NCI SRB cytotoxicity, renal ACHN; format: cell-based; conditions: Homo sapiens, 48 h exposure
Description: as §1

SK-MEL-5 = assay: NCI SRB cytotoxicity, melanoma SK-MEL-5; format: cell-based; conditions: Homo sapiens, 48 h exposure
Description: as §1

OVCAR-8 = assay: NCI SRB cytotoxicity, ovarian OVCAR-8; format: cell-based; conditions: Homo sapiens, 48 h exposure
Description: as §1

Breast = assay: NCI SRB cytotoxicity, breast panel average; format: cell-based, human; conditions: average of cell lines; for CC50: read-out: Log10 LC50 (concentration in mol/L causing 50% cell death) (converted)
Description: as §1
(§2) Each cancer type represents the average of six to eight different cancer cell lines.

NCIH322M = assay: NCI SRB cytotoxicity, non-small cell lung NCIH322M; format: cell-based; conditions: Homo sapiens, NCI-H322M, 48 h exposure
Description: as §1

LOX IMVI = assay: NCI SRB cytotoxicity, melanoma LOX IMVI; format: cell-based; conditions: Homo sapiens, 48 h exposure
Description: as §1

HCC-2998 = assay: NCI SRB cytotoxicity, colon HCC-2998; format: cell-based; conditions: Homo sapiens, 48 h exposure
Description: as §1

HCT-15 = assay: NCI SRB cytotoxicity, colon HCT-15; format: cell-based; conditions: Homo sapiens, 48 h exposure
Description: as §1

NCI-H226 = assay: NCI SRB cytotoxicity, non-small cell lung NCI-H226; format: cell-based; conditions: Homo sapiens, 48 h exposure
Description: as §1

SK-OV-3 = assay: NCI SRB cytotoxicity, ovarian SK-OV-3; format: cell-based; conditions: Homo sapiens, 48 h exposure
Description: as §1

OVCAR-4 = assay: NCI SRB cytotoxicity, ovarian OVCAR-4; format: cell-based; conditions: Homo sapiens, 48 h exposure
Description: as §1

CNS = assay: NCI SRB cytotoxicity, CNS panel average; format: cell-based, human; conditions: average of cell lines; for LC50: read-out: Log10 LC50 (concentration in mol/L causing 50% cell death) (converted)
Description: as §1, §2

RPMI-8226 = assay: NCI SRB cytotoxicity, leukemia RPMI-8226; format: cell-based; conditions: Homo sapiens, 48 h exposure
Description: as §1

786-0 = assay: NCI SRB cytotoxicity, renal 786-0; format: cell-based; conditions: Homo sapiens, 48 h exposure
Description: as §1

M14 = assay: NCI SRB cytotoxicity, melanoma M14; format: cell-based; conditions: Homo sapiens, 48 h exposure
Description: as §1

CAKI-1 = assay: NCI SRB cytotoxicity, renal CAKI-1; format: cell-based; conditions: Homo sapiens, 48 h exposure
Description: as §1

A498 = assay: NCI SRB cytotoxicity, renal A498; format: cell-based; conditions: Homo sapiens, 48 h exposure
Description: as §1

BT-549 = assay: NCI SRB cytotoxicity, breast BT-549; format: cell-based; conditions: Homo sapiens, 48 h exposure
Description: as §1

MDA-MB-435 [2] = assay: NCI SRB cytotoxicity, melanoma MDA-MB-435; format: cell-based; conditions: Homo sapiens, Melanoma panel MDA-MB-435, 48 h exposure
Description: as §1

KM12 = assay: NCI SRB cytotoxicity, colon KM12; format: cell-based; conditions: Homo sapiens, 48 h exposure
Description: as §1

NCI-H522 = assay: NCI SRB cytotoxicity, non-small cell lung NCI-H522; format: cell-based; conditions: Homo sapiens, 48 h exposure
Description: as §1

[3] = across fifty nine cell lines in nine cell panels, read-out: GI50 value range
[4] = against human tumor cell lines, read-out: Log10 GI50 mean graph midpoint (MG_MID) (converted)
[5] = Homo sapiens, read-out: Log10 GI50 (concentration in mol/L causing 50% growth inhibition) (converted)

In the case of `COc1cc(-c2cc(/C=C/C(=O)c3ccc(F)c(F)c3)[nH]n2)cc(OC)c1OC` [13e, (E)-1-(3,4-difluorophenyl)-3-(3-(3,4,5-trimethoxyphenyl)-1H-pyrazol-5-yl)prop-2-en-1-one], the GI50 (SNB-19) is reported as 3640 nM, the GI50 (human tumor cell lines; [3]) is reported as 180 to 29200 nM and the GI50 (human tumor cell lines; [4]) is reported as 2820 nM. For the same molecule, the cytotoxicity (human tumor cell lines) was “significant cytotoxicity”, the “Log10 TGI mean graph midpoint (MG_MID)” value (human tumor cell lines; against human tumor cell lines) was −4.74 and the LC50 (human tumor cell lines; against human tumor cell lines) was 81300 nM. For the same molecule, the GI50 (IGROV1) was 3620 nM, the GI50 (MALME-3M) was 2960 nM and the GI50 (T-47D) was 2450 nM. For the same molecule, the GI50 (OVCAR-5) was 4480 nM, the GI50 (SW-620) was 3420 nM and the GI50 (MDA-MB-435 [1]) was 2220 nM. For the same molecule, the GI50 (HT29) was 2620 nM, the GI50 (COLO-205) was 1690 nM and the GI50 (SF-268) was 3150 nM. It also gave a GI50 (SR) of 2920 nM, a GI50 (HOP-62) of 4390 nM and a GI50 (SK-MEL-28) of 5310 nM. For the same molecule, the GI50 (ACHN) was 3260 nM, the GI50 (SK-MEL-5) was 2270 nM and the GI50 (OVCAR-8) was 2880 nM. For the same molecule, the CC50 (Breast; Homo sapiens) was 97700 nM, the “Log10 GI50 (concentration in mol/L causing 50% growth inhibition)” value (Breast) was −5.56 mol/L and the “Log10 TGI (concentration in mol/L causing total growth inhibition (0% growth))” value (Breast) was −4.83 mol/L. For the same molecule, the GI50 (NCIH322M) was 3370 nM, the GI50 (LOX IMVI) was 3180 nM and the GI50 (HCC-2998) was 3690 nM. For the same molecule, the GI50 (HCT-15) was 3010 nM, the GI50 (NCI-H226) was 3720 nM and the GI50 (SK-OV-3) was 3530 nM. The GI50 (OVCAR-4) was 2200 nM, the LC50 (CNS; Homo sapiens) was 91200 nM and the “Log10 GI50 (concentration in mol/L causing 50% growth inhibition)” value (CNS) was −5.47 mol/L. For the same molecule, the “Log10 TGI (concentration in mol/L causing total growth inhibition (0% growth))” value (CNS) was −4.38 mol/L, the GI50 (RPMI-8226) was 1760 nM and the GI50 (786-0) was 3350 nM. For the same molecule, the GI50 (M14) was 2700 nM, the GI50 (CAKI-1) was 2980 nM and the GI50 (A498) was 2110 nM. It also gave a GI50 (BT-549) of 4110 nM, a GI50 (MDA-MB-435 [2]) of 2880 nM and a GI50 (KM12) of 3060 nM. The GI50 (NCI-H522) was 1570 nM.

`COc1ccc(C(=O)/C=C/c2cc(-c3cc(OC)c(OC)c(OC)c3)n[nH]2)cc1` [7e, (E)-1-(4-methoxyphenyl)-3-(3-(3,4,5-trimethoxyphenyl)-1H-pyrazol-5-yl)prop-2-en-1-one] showed a GI50 (SNB-19) of 1510 nM, a GI50 (human tumor cell lines; [3]) of 180 to 29200 nM and a GI50 (human tumor cell lines; [4]) of 1780 nM. For the same molecule, the cytotoxicity (human tumor cell lines) was “significant cytotoxicity”, the “Log10 TGI mean graph midpoint (MG_MID)” value (human tumor cell lines; against human tumor cell lines) was −5.31 and the LC50 (human tumor cell lines; against human tumor cell lines) was 33900 nM. For the same molecule, the GI50 (IGROV1) was 2210 nM, the GI50 (MALME-3M) was 1860 nM and the GI50 (T-47D) was 2310 nM. For the same molecule, the GI50 (OVCAR-5) was 1880 nM, the GI50 (SW-620) was 1620 nM and the GI50 (MDA-MB-435 [1]) was 1290 nM. It also gave a GI50 (HT29) of 1970 nM, a GI50 (COLO-205) of 1730 nM and a GI50 (SF-268) of 1990 nM. For the same molecule, the GI50 (SR) was 340 nM, the GI50 (HOP-62) was 1760 nM and the GI50 (SK-MEL-28) was 2120 nM. The GI50 (ACHN) was 1960 nM, the GI50 (SK-MEL-5) was 1720 nM and the GI50 (OVCAR-8) was 2430 nM. The GI50 (Breast; [5]) was 1910 nM, the CC50 (Breast; Homo sapiens) was 33900 nM and the “Log10 TGI (concentration in mol/L causing total growth inhibition (0% growth))” value (Breast) was −5.08 mol/L. The GI50 (NCIH322M) was 1920 nM, the GI50 (LOX IMVI) was 1580 nM and the GI50 (HCC-2998) was 1780 nM. For the same molecule, the GI50 (HCT-15) was 1580 nM, the GI50 (NCI-H226) was 1890 nM and the GI50 (SK-OV-3) was 3990 nM. The GI50 (OVCAR-4) was 2200 nM, the GI50 (CNS; [5]) was 1660 nM and the LC50 (CNS; Homo sapiens) was 24500 nM. For the same molecule, the “Log10 TGI (concentration in mol/L causing total growth inhibition (0% growth))” value (CNS) was −5.46 mol/L, the GI50 (RPMI-8226) was 430 nM and the GI50 (786-0) was 1950 nM. The GI50 (M14) was 2200 nM, the GI50 (CAKI-1) was 2340 nM and the GI50 (A498) was 1740 nM. It also gave a GI50 (BT-549) of 1860 nM, a GI50 (MDA-MB-435 [2]) of 2200 nM and a GI50 (KM12) of 1560 nM. The GI50 (NCI-H522) was 1470 nM.
